Results on four compounds are retold here after patent publication US20230028659A1, “THERAPEUTIC COMPOSITIONS AND METHODS FOR PREVENTION AND TREATMENT OF DIASTOLIC DYSFUNCTION” (AMBETEX PTY LTD, priority 2019, published 2023).

For data set [1], the system named is Primary mouse neonatal ventricular cardiomyocytes. The data set is described as follows: Neonatal ventricular cardiomyocyte experiments, antagonist studies (gene expression). The data set is classed as cell-based. Particulars: 10 uM, cardiomyocytes exposed to Aβ42, FIG. 6B. As for the experimental part: Total mRNA from the tissues was extracted by homogenizing ˜20-30 milligrams of tissue in 1 ml of Trizol followed by incubation at room temperature (RT) for 5 min. 200 μL of chloroform was added to the homogenate, shaken for 15 seconds and incubated for 1 min at RT before centrifuging at 12,000 g for 10 min at 4° C. for extracting the upper aqueous phase. An equal volume (350 μl for cell lysate/450 μL for tissue) of 70% ethanol was added to cell/tissue samples and they were further purified with RNeasy spin columns (the RNeasy®min i Kit, Qiagen). Complementary DNA (cDNA) was synthesised using the SuperScript™ III transcription system (Invitrogen). cDNA was quantified by OliGreen assay (Quant-iT™ OliGreen® ssDNA Assay Kit; Invitrogen). All primers were designed in-house using the Beacon Primer Designer program software and synthesised by Gene Works (Adelaide, Australia). […] Gene expression levels were quantified using the FastStart Universal SYBR Green Master (ROX; Roche Applied-Science) on the MX3005P™ Multiplex Quantitative PCR (QPCR) system (Stratagene). […]
Neonatal ventricular cardiomyocyte experiments: Primary mouse neonatal ventricular cardiomyocytes were isolated from one day old neonate mice. […] 48 hr after infection, cells were harvested and homogenized in protein lysis buffer, total protein concentration was determined and western blotting was performed, as described above. […]

For data set [2], the system named is Male C57BL6 mice. The experiment in a line: Aβ40 administration study. Details: dose or concentration left out as unconfirmed. Particulars: i.p. for 5 weeks vs ScrAβ40, FIG. 11A. Format: in vivo. As for the experimental part:
Aβ40 administration study: Lyophilised recombinant Aβ40 (Millipore) and scrambled control peptide (ScrAβ40; Millipore) were resuspended in 1% NH4OH and aliquoted at 200 ng/ml in H2O and stored at −80° C. for no longer than 4 weeks. Male C57BL6 mice were obtained from the Animal Resource Centre (Perth, Wash.) at 4 weeks of age and housed with 4 mice per cage on a 12 hr light/dark cycle at a temperature of 22° C. and a constant humidity with a normal rodent diet. At 12 weeks of age, mice were grouped according to body mass and composition, determined by EchoMRI. […] After 4 weeks of peptide administration, cardiac function was assessed by echocardiography as follows. Mice were anaesthetised with inhalation of 1.5% isoflurane anaesthesia and echocardiography was performed using the Phillips HD15 diagnostic ultrasound system with a 15 MHz linear-array transducer by an experienced veterinarian. The velocity of blood flow through the mitral valve was analysed using Doppler mode imaging. […] Doppler imaging was also utilised to measure the velocity of blood flow through the aortic valve. […] An estimation of LV mass was calculated from the m-mode imaging by using the formula (1.05 [LVIDd+LVPWd+IVSd]^3−[LVIDd]^3) by Troy et al. (1972). […] Plasma […] was measured using a high sensitivity ELISA kit (Wako Diagnostics) and plasma that was diluted 1:10 with assay buffer.

In data set [3] the test system is mice on HFD (established obesity). The data set is described as follows: Basimglurant-High Fat Diet (HFD) treatment study. Format: in vivo. To be noted: obese mice. The protocol:
Basimglurant-High Fat Diet (HFD) treatment study: At 12 weeks of age, mice (n=30) were placed on a HFD with 43% of calories from fat (23.5% by weight; SF04-001 High Fat Rodent Diet Based on D12451, Specialty Feeds, Glen Forrest, Wash.). After 13 weeks of the diet period, echocardiography was performed on all mice to obtain pre-drug treatment measures of cardiac function. Mice were allocated to treatment groups so that measures of cardiac function and morphology were matched as best as possible. Basimglurant (MedChemExpress) was resuspended in 100% DMSO before being diluted in a hydroxypropyl cellulose solution to give a final solution containing 0.25 mg/mL Basimglurant in 10% hydroxypropyl cellulose and 5% DMSO. A vehicle solution containing 10% hydroxypropyl cellulose and 5% DMSO was also made. Aliquots of both drug and vehicle were stored at −80° C. until required. The HFD/Basimglurant group was administered 1 mg/kg of Basimglurant per day by oral gavage, while the HFD/control group received an equivalent volume of vehicle. Echocardiography was then performed following 4 weeks of the treatment period to obtain post-drug treatment measures of cardiac function. Following 5 weeks of the drug administration, mice were humanely killed via cervical dislocation and blood was immediately obtained via cardiac puncture and stored in a heparinised tube. […]

Data set [4] deals with Male C57BL6 mice. The data set is described as follows: Aβ42 and mGluR5 NAM administration study. Format: in vivo. To be noted: Basimglurant 1 mg/kg oral gavage or vehicle plus Aβ42 i.p. once/day; for plasma Aβ42 compared with the ScrAβ42+Veh group: FIG. 9A; for Peak E wave compared with the ScrAβ42+Veh group: FIG. 9B. As for the experimental part:
Basimglurant (MedChemExpress) was resuspended in 100% DMSO before being diluted in a hydroxypropyl cellulose solution to give a final solution containing 0.25 mg/mL Basimglurant in 10% hydroxypropyl cellulose and 5% DMSO. A vehicle solution containing 10% hydroxypropyl cellulose and 5% DMSO was also made. Aliquots of both drug and vehicle were stored at −80° C. until required. Male C57BL6 mice were obtained from the Animal Resource Centre (Perth, Wash.) at 4 weeks of age and housed with 4 mice per cage on a 12 hr light/dark cycle at a temperature of 22° C. and a constant humidity with a normal rodent diet. At 12 weeks of age, mice were grouped according to body mass and composition, determined by EchoMRI. […] After 4 weeks of drug and peptide administration, cardiac function was assessed by echocardiography as follows. Mice were anaesthetised with inhalation of 1.5% isoflurane anaesthesia and echocardiography was performed using the Phillips HD15 diagnostic ultrasound system with a 15 MHz linear-array transducer by an experienced veterinarian. The velocity of blood flow through the mitral valve was analysed using Doppler mode imaging. […] Doppler imaging was also utilised to measure the velocity of blood flow through the aortic valve. The measurements were then used to calculate the ejection time (LVET), peak aortic flow and heart rate. M-mode imaging of the left ventricle was used to measure the thickness of the inter-ventricular septum (IVS), left ventricular internal diameter (LVID) and left ventricular posterior wall (LVPW) in both diastole (d) and end-systole (s) as well as systolic measures such as ejection fraction and fractional shortening. An estimation of LV mass was calculated from the m-mode imaging by using the formula (1.05[LVIDd+LVPWd+IVSd]^3−[LVIDd]^3) by Troy et al. (1972). The myocardial performance index (MPI), a global index of both diastolic and systolic cardiac function, was calculated using the formula ([IVCT+IVRT]/LVET), by Tei et al. (1995). Mice were humanely killed by cervical dislocation 1 week later. Blood was obtained immediately following by cardiac puncture and the heart, and other tissues were immediately removed. Hearts were washed in ice cold PBS and weighed prior to being snap frozen in liquid nitrogen.

Data set [5] deals with Male C57BL6 mice. The data set is described as follows: Aβ42 administration study: cardiac function by echocardiography. Format: in vivo. The protocol: After 4 weeks of peptide administration, cardiac function was assessed by echocardiography as follows. Mice were anaesthetised with inhalation of 1.5% isoflurane anaesthesia and echocardiography was performed using the Phillips HD15 diagnostic ultrasound system with a 15 MHz linear-array transducer by an experienced veterinarian. The velocity of blood flow through the mitral valve was analysed using Doppler mode imaging. […] Doppler imaging was also utilised to measure the velocity of blood flow through the aortic valve. The measurements were then used to calculate the ejection time, peak aortic flow and heart rate. M-mode imaging of the left ventricle was used to measure the thickness of the inter-ventricular septum (IVS), left ventricular internal diameter (LVID) and left ventricular posterior wall (LVPW) in both diastole (d) and end-systole (s) as well as systolic measures such as ejection fraction and fractional shortening. An estimation of LV mass was calculated from the m-mode imaging by using the formula (1.05[LVIDd+LVPWd+IVSd]^3−[LVIDd]^3) by Troy et al. (1972). Mice were humanely killed by cervical dislocation 1 week later. Blood was obtained immediately following by cardiac puncture and the heart, and other tissues were immediately removed. Hearts were washed in ice cold PBS and weighed prior to being snap frozen in liquid nitrogen.

For data set [6], the system named is Male C57BL6 mice. The experiment in a line: Aβ42 administration study: GTT with glucose tracers, cardiac metabolism. The data set is classed as in vivo.
Description: Male C57BL6 mice were obtained from the Animal Resource Centre (Perth, Wash.) at 4 weeks of age and housed with 4 mice per cage on a 12 hr light/dark cycle at a temperature of 22° C. and a constant humidity with a normal rodent diet. At 12 weeks of age, mice were grouped according to body mass and composition, determined by EchoMRI. […] An i.p. glucose tolerance test (GTT) was performed on the final treatment day following an overnight fast. Mice were administered 2 g/kg lean mass of glucose including radioactive glucose tracers, prepared as follows. 100 μl of 1 μCi/μ1 glucose analogue, [^3H]-2-deoxyglucose (2-DOG), and 500 μl of 200 μCi/mL U-^14C glucose were evaporated to dryness before redissolving the radioactive tracers in 1 mL of 50% glucose. This produced a 50% glucose solution containing 100 μCi/mL [^3H]-2-DOG and 100 μCi/mL U-^14C glucose. The tail tip of each mouse was cut off and the blood glucose concentration of a blood sample was measured using an AccuCheck II glucometer (Roche). The GTT was initiated via intraperitoneal injection of the radiolabelled glucose solution (2 g/kg body weight, 10 uCi/animal) into the overnight-fasted mice. Further blood samples were taken at 15, 30, 45, 60 and 90 minutes after the injection for the measurement of blood glucose. Blood samples (30 μl) were also taken from the tail tip at each time point and diluted in 100 μl of saline. These samples were then centrifuged and the supernatant collected. 50 μl of the supernatant was diluted in 500 μl of distilled water and then suspended in 4 mL of Ultima Gold XR scintillation fluid (Packard Bioscience). Blood radioactivity was determined at each time point by performing liquid scintillation counting on each solution using the Beckman scintillation counter (LS6000 SC). At the conclusion of the GTT, mice were killed via cervical dislocation. Blood was obtained immediately following by cardiac puncture and the heart, and other tissues were immediately removed. Hearts were washed in ice cold PBS and weighed prior to being snap frozen in liquid nitrogen. The heart (30 mg), epididymal fat pad (30 mg and quadriceps skeletal muscle (30 mg) were homogenised in 1.5 ml of distilled water. The homogenate was centrifuged at 3000 rpm for 10 min at 4° C. 400 μl of the supernatant was diluted into 1.6 mL of distilled water and then suspended in 14 mL of Ultima Gold XR scintillation fluid (Packard Bioscience). The radioactivity of each sample (from both [^3H]-2-DOG6P and [^3H]-2-DOG) was determined by liquid scintillation counting using the Beckman scintillation counter (LS6000 SC).
The ^3H radioactivity was used to measure glucose uptake into each tissue.
To determine the incorporation of U-^14C glucose into triglyceride and the total triglyceride content in the heart, an extraction of triglyceride was carried out using a chloroform/methanol mixture. Samples of heart (30 mg) were hand-homogenised in 2 mL of chloroform/methanol (2:1) and the homogeniser rinsed in a further 2 mL of chloroform/methanol (2:1), and the washings being added to the original extract in 10 mL tubes. The tubes were tightly capped and mixed on a rotator overnight to maximise extraction of the triglycerides. […] The amount of U-^14C glucose clearance into the lipid fraction was measured by suspending 100 μl of the triglyceride solution in 5 mL of Ultima Gold XR scintillation fluid (Packard Bioscience), followed by scintillation counting using the Beckman scintillation counter (LS6000 SC).
Data set [7] deals with Male C57BL6 mice. The data set is described as follows: Aβ42 administration study: heart gene expression and western blotting (NLRP3 inflammasome, PKD). Format: in vivo. Particulars: chronic administration. As for the experimental part:
Total mRNA from the tissues was extracted by homogenizing ˜20-30 milligrams of tissue in 1 ml of Trizol followed by incubation at room temperature (RT) for 5 min. 200 μL of chloroform was added to the homogenate, shaken for 15 seconds and incubated for 1 min at RT before centrifuging at 12,000 g for 10 min at 4° C. for extracting the upper aqueous phase. An equal volume (350 μl for cell lysate/450 μL for tissue) of 70% ethanol was added to cell/tissue samples and they were further purified with RNeasy spin columns (the RNeasy®min i Kit, Qiagen). Complementary DNA (cDNA) was synthesised using the SuperScript™ III transcription system (Invitrogen). cDNA was quantified by OliGreen assay (Quant-iT™ OliGreen® ssDNA Assay Kit; Invitrogen). All primers were designed in-house using the Beacon Primer Designer program software and synthesised by Gene Works (Adelaide, Australia). Primer sequence efficiency was tested over a wide concentration range. Gene expression levels were quantified using the FastStart Universal SYBR Green Master (ROX; Roche Applied-Science) on the MX3005P™ Multiplex Quantitative PCR (QPCR) system (Stratagene). Log-transformed CT values were normalised to cDNA concentration to determine relative gene expression levels.
Approximately 20 mg of ventricle tissue was homogenised in ice-cold lysis buffer (50 mM Tris pH7.5, 1 mM EDTA, 1 mM EGTA, 10% glycerol, 1% triton X-100, 50 mM NaF, 5 mM Na4P2O7, 1 mM Na3VO4, 1 mM DTT, protease inhibitor cocktail) and protein content was determined using the BCA method. […] Blocked membranes were exposed to primary antibodies towards pro-caspase-1, mature caspase 1, total PKD, PKD phosphorylated at ser744 and 748 (Cell Signalling Technology, Danvers, USA) and α-tubulin (Sigma-Aldrich, St. Louis, USA). Membranes were visualised and bands quantified by using the ChemiDoc™ XRS+ with Image Lab™ software.
(In general: In western blotting, separated proteins are transferred to a membrane and probed.)

Consider `O=C1NCCCc2c1oc1ccc(O)cc21` [CID755673], for which, in data set [1], the “Aβ42-induced increase in inflammatory gene expression” value is given as “prevented”.

With “Aβ40: Lyophilised recombinant Aβ40 (Millipore), amyloid beta peptide”, the “plasma Aβ40” value in data set [2] was “significantly increased”.

In the case of `Cc1nc(C#Cc2ccnc(Cl)c2)c(C)n1-c1ccc(F)cc1` [Basimglurant], the DT after treatment in data set [3] (13 weeks HFD then 4 weeks daily 1 mg/kg oral gavage, FIG. 12A) is 100 % of baseline levels. Moreover, the “plasma Aβ42 levels” value in data set [3] (daily 1 mg/kg oral gavage, FIG. 12B) is “did not have any effect”. In addition, the “plasma Aβ42 compared with the ScrAβ42+Veh group” value in data set [4] is recorded as “significantly increased”. Also, in data set [4] (echocardiography after 4 weeks), the “Peak E wave compared with the ScrAβ42+Veh group” value is on record as “reduced in the Aβ42+Veh group, but not in the Aβ42+Basimglurant groups”. In addition, the “myocardial performance index (MPI) compared with the ScrAβ42+Veh group” value in data set [4] (echocardiography after 4 weeks, FIG. 9C) was “increased in the Aβ42+Veh group, but not in the Aβ42+Basimglurant groups”.

As for “Aβ42: Lyophilised recombinant Aβ42 (Millipore), amyloid beta peptide of 42 amino acids”, the deceleration time result in data set [5] (echocardiography, vs ScrAβ42, FIG. 2D) is listed as “increased”. In addition, the “E normalised by isovolumetric relaxation time (IVRT)” value in data set [5] (echocardiography, vs ScrAβ42, FIG. 2E) was “no significant difference”. Also, in data set [5] (echocardiography, vs ScrAβ42, FIG. 2F), the fractional shortening entry is listed as “reduced”. Further, the ejection fraction result in data set [5] (echocardiography, vs ScrAβ42, FIG. 2G) is “reduced”. In addition, the gross heart weight entry in data set [5] (five weeks of peptide vs ScrAβ42, FIG. 2A) is listed as “no effect”. The “internal dimensions of the left ventricle (LVIDd)” value in data set [5] (five weeks of peptide vs ScrAβ42, FIG. 2B) is listed as “no effect”. Besides, the “whole body glucose tolerance or plasma insulin throughout the GTT” value in data set [6] (after five weeks of peptide, vs ScrAβ42) was “no difference”. Besides, in data set [6] (heart, FIG. 1C), the “glucose incorporation into TAG (14C-glucose labelling)” value is reported as “greater”. In addition, in data set [6] (heart, FIG. 1D), the “total TAG” value was “increased”. The “cardiac gene expression (inflammation, endoplasmic reticulum stress)” value in data set [6] (heart, FIG. 1E) was “gene expression changes indicative of cardiac stress responses”. Besides, the “increase in plasma Aβ42 compared with administration of ScrAβ42” value in data set [6] (i.p. 1 μg/day for five weeks, FIG. 1A) was “approximately 3 fold”. Besides, in data set [7] (FIG. 6A), the “phosphorylation of PKD at ser744 and 748” value is reported as “increased”. Further, the “expression of genes associated with priming of the NLRP3 inflammasome (Nlrp3, Ifna, Il18)” value in data set [7] (heart, FIG. 5A) is given as “increased”. For the same compound, in data set [7] (western blot, FIG. 5B), the “mature caspase 1” value was “increased” and the “pro-caspase 1” value is recorded as “increased”. Besides, in data set [4], the “plasma Aβ42 compared with the ScrAβ42+Veh group” value is listed as “elevated”. For the same compound, in data set [4] (echocardiography after 4 weeks), the “Peak E wave compared with the ScrAβ42+Veh group” value is “reduced”.
